For series [1], the target named is T1, Discoidin domain-containing receptor 2 (Homo sapiens, UniProt Q16832).
T1 sequence (Q16832 whole entry): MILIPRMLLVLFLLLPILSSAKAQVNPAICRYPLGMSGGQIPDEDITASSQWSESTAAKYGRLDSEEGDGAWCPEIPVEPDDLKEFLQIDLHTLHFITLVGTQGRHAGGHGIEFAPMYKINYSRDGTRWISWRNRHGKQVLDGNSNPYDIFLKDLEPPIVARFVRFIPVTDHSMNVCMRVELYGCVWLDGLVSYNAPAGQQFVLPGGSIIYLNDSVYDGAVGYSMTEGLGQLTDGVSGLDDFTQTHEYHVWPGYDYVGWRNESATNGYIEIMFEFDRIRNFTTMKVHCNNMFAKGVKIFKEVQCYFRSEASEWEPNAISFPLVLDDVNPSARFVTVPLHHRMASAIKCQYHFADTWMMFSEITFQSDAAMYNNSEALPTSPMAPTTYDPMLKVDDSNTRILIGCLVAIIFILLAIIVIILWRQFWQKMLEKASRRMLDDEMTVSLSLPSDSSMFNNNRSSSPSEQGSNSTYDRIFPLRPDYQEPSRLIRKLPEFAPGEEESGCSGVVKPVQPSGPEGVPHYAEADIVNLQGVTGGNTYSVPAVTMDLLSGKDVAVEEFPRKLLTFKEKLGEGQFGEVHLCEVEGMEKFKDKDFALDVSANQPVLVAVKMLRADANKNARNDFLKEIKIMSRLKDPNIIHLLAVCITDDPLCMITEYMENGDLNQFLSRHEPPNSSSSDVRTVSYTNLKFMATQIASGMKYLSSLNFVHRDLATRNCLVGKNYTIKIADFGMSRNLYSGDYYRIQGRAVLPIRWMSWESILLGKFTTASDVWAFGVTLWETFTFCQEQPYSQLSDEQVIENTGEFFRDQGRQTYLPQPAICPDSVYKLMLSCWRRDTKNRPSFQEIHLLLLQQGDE
The series is described as follows: Inhibition of kinase tracer 178 binding to recombinant human His-tagged DDR2 expressed in baculovirus infected Sf9 cells incubated for 1 hr by TR-FRET based LanthaScreen Eu kinase binding assay. On the technique in general: TR-FRET usually uses a lanthanide donor and a delayed reading to cut background.

Series [2] can be described thus: Fraction unbound in rat plasma incubated for 4 hrs by LC/MS/MS analysis. The series is classed as ADME, cell-free.
A short description of series [3]: Cytotoxicity against mesangial cells (unknown origin) expressing Hu-DDR1b assessed as reduction in cell viability at 10 uM incubated for 24 hrs by microscopic analysis. The series is classed as cell-based.
Series [4] in a line: Half life in Sprague-Dawley rat at 0.5 mg/kg, iv or 3 mg/kg, po measured upto 24 hrs by LC/MS/MS analysis. The series is classed as ADME, organism-based. The settings on record: in vivo.
Series [5] in a line: Tmax in Sprague-Dawley rat at 3 mg/kg, po measured upto 24 hrs by LC/MS/MS analysis. The series is classed as ADME, organism-based. As to conditions: in vivo.
A short description of series [6]: Volume of distribution at steady state in Sprague-Dawley rat at 0.5 mg/kg, iv or 3 mg/kg, po measured upto 24 hrs by LC/MS/MS analysis. The series is classed as ADME, organism-based. The settings on record: in vivo, read-out: Vdss.
The nature of series [7]: Metabolic stability in rat liver microsomes assessed as […] at 1 uM incubated for 5 mins followed by NADPH addition and measured upto 45 mins by LC/MS/MS analysis. In kind it is ADME, Microsome. The settings on record: read-out: CLH. (In general: Microsomes from liver hold many membrane-bound enzymes, among them those of drug oxidation.)
A short description of series [8]: Oral bioavailability in Sprague-Dawley rat at 3 mg/kg measured upto 24 hrs by LC/MS/MS analysis. In kind it is ADME, organism-based. The settings on record: in vivo.
The nature of series [9]: Clearance in Sprague-Dawley rat at 0.5 mg/kg, iv or 3 mg/kg, po measured upto 24 hrs by LC/MS/MS analysis. The series is classed as ADME, organism-based. The settings on record: in vivo.
Series [10] is described as follows: Cytotoxicity against mesangial cells (unknown origin) expressing Hu-DDR1b assessed as reduction in cell viability at 1 uM incubated for 24 hrs by microscopic analysis. The series is classed as cell-based.
The target in series [11] is Epithelial discoidin domain-containing receptor 1 (Homo sapiens, UniProt Q08345). Nature of the series: Inhibition of FLAG-tagged DDR1 in human HEK293 cells assessed as reduction in collagen-1-induced DDR1 phosphorylation incubated for 18 hrs by ELISA.
Epithelial discoidin domain-containing receptor 1, sequence (Q08345 whole entry, the tested form may be a part): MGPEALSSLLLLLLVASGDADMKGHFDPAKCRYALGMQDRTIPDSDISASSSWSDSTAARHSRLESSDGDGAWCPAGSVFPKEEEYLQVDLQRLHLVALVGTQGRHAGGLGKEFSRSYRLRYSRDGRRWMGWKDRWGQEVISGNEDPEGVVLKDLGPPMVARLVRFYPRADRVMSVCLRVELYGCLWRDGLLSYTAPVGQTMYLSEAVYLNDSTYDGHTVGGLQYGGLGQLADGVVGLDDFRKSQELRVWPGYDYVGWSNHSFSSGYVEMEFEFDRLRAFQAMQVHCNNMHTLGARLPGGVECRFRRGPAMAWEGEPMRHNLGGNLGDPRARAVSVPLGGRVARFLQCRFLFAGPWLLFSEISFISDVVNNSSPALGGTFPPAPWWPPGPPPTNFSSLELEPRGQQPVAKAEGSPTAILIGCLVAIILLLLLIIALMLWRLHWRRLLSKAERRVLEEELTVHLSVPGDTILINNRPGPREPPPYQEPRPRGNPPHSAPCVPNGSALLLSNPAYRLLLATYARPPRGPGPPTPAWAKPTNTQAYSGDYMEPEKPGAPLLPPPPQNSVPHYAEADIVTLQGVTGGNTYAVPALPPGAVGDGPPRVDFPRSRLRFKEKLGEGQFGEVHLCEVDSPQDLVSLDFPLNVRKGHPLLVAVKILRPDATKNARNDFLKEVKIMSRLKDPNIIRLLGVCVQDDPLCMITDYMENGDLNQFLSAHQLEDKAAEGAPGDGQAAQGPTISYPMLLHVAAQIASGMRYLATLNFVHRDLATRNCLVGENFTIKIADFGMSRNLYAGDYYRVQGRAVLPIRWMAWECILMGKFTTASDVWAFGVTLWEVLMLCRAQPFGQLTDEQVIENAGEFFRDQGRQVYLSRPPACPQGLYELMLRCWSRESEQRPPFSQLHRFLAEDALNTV

pIC50: −log10 of the molar value.

As usually defined, the pIC50 is −log10 of the IC50, conventionally taken in molar units. In the case of `Cc1ccc(C(=O)Nc2cccc(C(F)(F)F)c2)cc1NCc1cncc(C(N)=O)c1`, the negative logarithm of the IC50 (pIC50) in [1] is 8.32.

On to `Cc1ccc(C(=O)Nc2cccc(C(F)(F)F)c2)cc1NCc1cccnc1`, for which, in series [1], the pIC50 is 7.97.

Consider `COc1cncc(CNc2cc(C(=O)Nc3cccc(C(F)(F)F)c3)ccc2C)c1`, for which the pIC50 in [1] was 8.20.

`Cc1ccc(C(=O)Nc2ccc(C)c(C(F)(F)F)c2)cc1NCc1cncc(-c2ccc[nH]2)c1`: the pIC50 in [1] is 7.36.

The fraction unbound is free concentration divided by total concentration. Read a high fraction unbound as much free substance. A word on the half-life: it is the time in which the quantity being followed falls by half. Low readings indicate rapid decline, high ones slow decline. The Tmax is the time at which the peak concentration occurs. Broadly, the bioavailability is the share of a dose that reaches the circulation, judged against a reference dose that is usually intravenous. Low values mean poor availability, high ones good availability. The molecule `Cn1ccc(-c2cncc(CNc3cc(C(=O)Nc4cccc(OC(F)(F)F)c4)ccc3F)c2)n1` yielded a fraction unbound at 4 h in series [2] of 0.089. The Activity entry in [3] is “Non-Toxic”. This molecule gave a half-life in [4] of 3 h. Besides, the Tmax in [5] came to 0.75 h. Also, the Vd in series [6] is 4.3 L/kg. For the same molecule, the CLint scaled at 1 µM in series [7] is 2.59 L/h/kg. This molecule gave a bioavailability in series [8] of 12.5%. Besides, in series [9], the clearance was 2.05 L/h/kg. Besides, the pIC50 in series [1] is 8.13.

Take `Cc1ccc(C(=O)Nc2cccc(C(F)(F)F)c2)cc1NCc1cncc(-c2ccn(C)n2)c1`: the free fraction (fraction unbound) at 4 h in series [2] turned out to be 0.016. Further, the CLint scaled at 1 µM in [7] came out at 2.76 L/h/kg. The negative-log IC50 (pIC50) in series [1] was 8.34.

In [2], `Cc1ccc(C(=O)Nc2cccc(C(F)(F)F)c2)cc1NCc1cncc(-c2ccc[nH]2)c1` displayed a free fraction (fraction unbound) at 4 h of 0.001. The CLint scaled at 1 µM in [7] came to 3.72 L/h/kg. For the same molecule, the negative logarithm of the IC50 (pIC50) in series [1] is 7.96.

Regarding `Cc1ccc(C(=O)Nc2cccc(C(F)(F)F)c2)cc1Nc1cncc(C(N)=O)c1`, the fraction unbound at 4 h in [2] is 0.018. In series [10], the Activity entry is listed as “Toxic”. Besides, in [11], the negative logarithm of the IC50 (pIC50) is 8.32. Moreover, the CLint scaled at 1 µM in series [7] was determined as 3.6 L/h/kg.
